From ChEMBL document CHEMBL3621180, “Isolation of two new bioactive sesquiterpene lactone glycosides from the roots of Ixeris dentata” (Bioorg Med Chem Lett, 2015) come the findings set out here.

The nature of data set [1]: Antiinflammatory activity in […] BV2 cells assessed as inhibition of lipopolysaccharide-induced nitric oxide production at 5 uM incubated for 24 hrs by Griess reagent based assay (reference value: 20.3 +/- 0.1 uM). The data set is classed as functional, BV-2.
Data set [2] is described as follows: Antiinflammatory activity in […] BV2 cells assessed as inhibition of lipopolysaccharide-induced nitric oxide production at 20 uM incubated for 24 hrs by Griess reagent based assay (reference value: 20.3 +/- 0.1 uM). The data set is classed as functional, BV-2.
The nature of data set [3]: Cytotoxic activity against […] BV2 cells assessed as cell viability at 5 uM incubated for 24 hrs by MTT assay (reference value: 100%). The class given is cell-based, BV-2. The conditions noted are these: read-out: Activity.
The nature of data set [4]: Cytotoxic activity against […] BV2 cells assessed as cell viability at 20 uM incubated for 24 hrs by MTT assay (reference value: 100%). The data set is classed as cell-based, BV-2. The conditions noted are these: mouse, read-out: Activity.

On to `C=C1C[C@@H](O)[C@@H]2[C@H](OC(=O)[C@H]2C)[C@H]2C(C)=C(O[C@@H]3O[C@H](CO)[C@@H](O)[C@H](O)[C@H]3O)C[C@@H]12`, for which the Activity was 19.9 µM in data set [1] and 17.2 µM in data set [2]. For the same compound, the viability at 24 h, 5 µM in data set [3] turned out to be 108%. Further, the viability at 24 h, 20 µM in data set [4] came out at 108%.

In the case of `C=C1C(=O)O[C@@H]2[C@H]3C(C)=C(O[C@@H]4O[C@H](CO)[C@@H](O)[C@H](O)[C@H]4O)C[C@H]3C(=C)C[C@@H](OC(=O)Cc3ccc(O)cc3)[C@@H]12`, the results for the Activity in data set [1] and in data set [2] were 18.2 µM and 9.3 µM, respectively. Moreover, the viability at 24 h, 5 µM in data set [3] is 106%. The viability at 24 h, 20 µM in data set [4] was 103%.

Take `C=C1[C@@H]2[C@H]3OC(=O)[C@@H](C)[C@@H]3CCC(=C)[C@@H]2C[C@@H]1O[C@@H]1O[C@H](CO)[C@@H](O)[C@H](O)[C@H]1O`: the Activity in data set [1] came out at 19.9 µM; in data set [2], 18.2 µM. For the same compound, the viability at 24 h, 5 µM in data set [3] is 116%. The viability at 24 h, 20 µM in data set [4] is 116%.

For `C=C1[C@@H]2[C@H]3OC(=O)[C@@H](C)[C@@H]3C[C@@H](O)C(=C)[C@@H]2C[C@@H]1O[C@@H]1O[C@H](CO)[C@@H](O)[C@H](O)[C@H]1O`, the Activity in data set [1] was 18.6 µM; in data set [2], 17.5 µM. For the same compound, the viability at 24 h, 5 µM in data set [3] was determined as 102%. Besides, the viability at 24 h, 20 µM in data set [4] amounted to 114%.

For `C=C1[C@@H]2[C@H]3OC(=O)C(=C)[C@@H]3C[C@@H](O)C(=C)[C@@H]2C[C@@H]1O[C@@H]1O[C@H](CO)[C@@H](O)[C@H](O)[C@H]1O`, the Activity in data set [1] came to 19.7 µM; in data set [2] it was 18.7 µM. Further, in data set [3], the viability at 24 h, 5 µM worked out at 110%. In addition, the viability at 24 h, 20 µM in data set [4] worked out at 110%.

Take `C=C1C(=O)O[C@@H]2[C@H]3C(=C)[C@@H](O[C@@H]4O[C@H](CO)[C@@H](O)[C@H](O)[C@H]4O)C[C@H]3C(=C)C[C@@H](O)[C@@H]12`: the Activity in data set [1] turned out to be 19.8 µM; in data set [2], 17.6 µM. In data set [3], the viability at 24 h, 5 µM amounted to 104%. In data set [4], the viability at 24 h, 20 µM stood at 103%.

On to `C=C1C[C@@H](O)[C@@H]2[C@H](OC(=O)[C@H]2C)[C@H]2[C@H](C)[C@@H](O[C@@H]3O[C@H](CO)[C@@H](O)[C@H](O)[C@H]3O)C[C@@H]12`, for which the values for the Activity in data set [1] and in data set [2] were 19.6 µM and 19.4 µM, respectively. Further, the viability at 24 h, 5 µM in data set [3] is 103%. In data set [4], the viability at 24 h, 20 µM was determined as 103%.

With `C=C1[C@@H]2[C@H]3OC(=O)[C@@H](C)[C@@H]3[C@H](O)CC(=C)[C@@H]2C[C@@H]1O[C@@H]1O[C@H](CO)[C@@H](O)[C@H](O)[C@H]1O`, the Activity in data set [1] was found to be 20.4 µM; in data set [2], 18 µM. Further, the viability at 24 h, 5 µM in data set [3] was found to be 106%. In data set [4], the viability at 24 h, 20 µM came out at 105%.

Take `C=C1C(=O)O[C@@H]2[C@H]3C(=C)[C@@H](O[C@@H]4O[C@H](CO)[C@@H](O)[C@H](O)[C@H]4O)C[C@H]3C(=C)C[C@@H](OC(=O)Cc3ccc(O)cc3)[C@@H]12`: the Activity in data set [1] worked out at 20.3 µM; in data set [2], 16.3 µM. Also, the viability at 24 h, 5 µM in data set [3] was found to be 106%. In addition, the viability at 24 h, 20 µM in data set [4] came out at 109%.

As to `C=C1C(=O)O[C@@H]2[C@H]3C(=C)[C@@H](O[C@@H]4O[C@H](CO)[C@@H](O)[C@H](O)[C@H]4O)C[C@H]3C(=C)C[C@@H](OC(=O)C(O)C(C)C)[C@@H]12` (stereo not given in full), the Activity in data set [1] stood at 21.5 µM; in data set [2], 18.2 µM. Further, in data set [3], the viability at 24 h, 5 µM stood at 105%. The viability at 24 h, 20 µM in data set [4] worked out at 97.5%.

Turning to `CC1=C2[C@H]3OC(=O)[C@@H](C)[C@@H]3CC[C@@]2(C)[C@H](O)CC1`, the Activity in data set [1] came to 17.9 µM; in data set [2], 17.7 µM. Also, the viability at 24 h, 5 µM in data set [3] came out at 110%. For the same compound, the viability at 24 h, 20 µM in data set [4] turned out to be 110%.

For `CC1=CC[C@@H](O[C@@H]2O[C@H](CO)[C@@H](O)[C@H](O)[C@H]2O)[C@]2(C)CC[C@@H]3[C@H](OC(=O)[C@H]3C)[C@@H]12`, the results for the Activity in data set [1] and in data set [2] were 18.9 µM and 18.4 µM, respectively. In data set [3], the viability at 24 h, 5 µM was 107%. In addition, the viability at 24 h, 20 µM in data set [4] amounted to 112%.

As for `C=C1C(=O)O[C@@H]2/C=C(\CO[C@@H]3O[C@H](CO)[C@@H](O)[C@H](O)[C@H]3O)CC/C=C(\C)CC[C@@H]12`, the Activity in data set [1] turned out to be 20.1 µM; in data set [2] it was 18 µM. The viability at 24 h, 5 µM in data set [3] stood at 105%. For the same compound, in data set [4], the viability at 24 h, 20 µM amounted to 103%.

Turning to `C/C1=C\CC/C(CO[C@@H]2O[C@H](CO)[C@@H](O)[C@H](O)[C@H]2O)=C/[C@H]2OC(=O)[C@@H](C)[C@@H]2CC1`, the Activity in data set [1] is 19.6 µM; in data set [2] it was 18.8 µM. Also, the viability at 24 h, 5 µM in data set [3] stood at 113%. In data set [4], the viability at 24 h, 20 µM came to 107%.

For the compound `CNC(=N)NCCC[C@H](N)C(=O)O` [TILARGININE], the Activity was found to be 20.1 µM in data set [1] and 14.1 µM in data set [2]. The viability at 24 h, 5 µM in data set [3] amounted to 112%. Moreover, the viability at 24 h, 20 µM in data set [4] is 108%.
